In patent US20240262803A1, “COMPOUNDS, COMPOSITIONS AND METHODS OF TREATING DISORDERS” (Chungdu Anticancer Bioscience Ltd, priority 2021, published 2024):
Where two headings read alike, the source gives them in different places.

Columns and labels:
Format in all cases: cell-based
[1] = system: colon cancer cell line SW460; assay: MTT assay of cellular proliferation, SW460; conditions: Homo sapiens, SW480; read-out: EC50: Concentration that inhibits 50% of proliferation
Protocol: (§1) Six lung cancer cell lines (NCI-H23, NCI-H460, NCI-H596, NCI-H2170, Calu-6 and A549), two colon cancer cell lines (HCT116 and SW460), one breast cancer cell line MDA-MB-231, one gastric cancer cell line NCI-N87, one prostate cancer cell line DU145, one cervical cancer cell line Hela, and one glioblastoma cell line T98G were obtained from ATCC. The T2 HCC cell line was derived from a mouse liver cancer model initiated by a transgene of MYC (Reference). All cell lines were cultured in DMEM (Gibco, Cleveland, TN, USA) supplemented with 5% fetal bovine serum (Gibco), penicillin (100 U/mL)-streptomycin (100 μg/mL) (Gibco, Cat. No. 15140-122), 2 mM L-glutamine (Gibco, 200 mM solution, Cat. No. 25030081), and 1 mM sodium pyruvate (Gibco, 100 mM solution, Cat. No. 11360070) at 37° C. in a humidified incubator that was maintained at 5% CO2.
(§2) The MTT assay measures cellular metabolic activity as a proxy for cell viability and involves the conversion of the water-soluble yellow dye MTT [3-(4,5-dimethylthiazol-2-yl)-2,5-diphenyltetrazolium bromide] into an insoluble purple formazan by the action of mitochondrial reductase. Formazan is then solubilized and its concentration is determined by measuring the optical density (OD) value at a wavelength of 570 nm. The value is in proportional to the number of live cells with excellent linearity up to ˜10^6 cells per well. The MTT assay was used to determine the EC50 value, the concentration of a compound that leads to 50% inhibition of cellular proliferation. Briefly, cells were split when growing to the mid-Log phase. Cells in 100 μL of culture medium were seeded into each well of 96-well microplates and cultivated for 15˜24 hours to reach a confluence of 20˜30% and were then exposed to drugs at concentrations ranging from 1 nM to 10 μM. At the endpoint, 20 μL of a MTT stock solution in DMSO (5 mg/mL) was added to each well that contains […] of DMEM. The microplates were left in the cell culture incubator for 3˜4 h before subjected to solubilization and determination of formazan at A570 in a microplate reader (BioTek ELX808iu). […] Therefore, these compounds might hold a broad utility in the treatment of a large variety of human malignancies.

[2] = system: gastric cancer cell line NCI-N87; assay: Minimal effective concentration that elicits polyploidy, NCI-N87; conditions: Homo sapiens, read-out: MECP: Minimal effective concentration that elicits polyploidy
[3] = system: lung cancer cell line NCI-H23; assay: Minimal effective concentration that elicits polyploidy, NCI-H23; conditions: Homo sapiens, read-out: MECP: Minimal effective concentration that elicits polyploidy
[4] = system: gastric cancer cell line NCI-N87; assay: MTT assay of cellular proliferation, NCI-N87; conditions: Homo sapiens, read-out: EC50: Concentration that inhibits 50% of proliferation
Protocol: as §1, §2

[5] = system: colon cancer cell line HCT116; assay: MTT assay of cellular proliferation, HCT116; conditions: Homo sapiens, HCT-116, read-out: EC50: Concentration that inhibits 50% of proliferation
Protocol: as §1, §2

[6] = system: cervical cancer cell line Hela; assay: MTT assay of cellular proliferation, Hela; conditions: Homo sapiens, read-out: EC50: Concentration that inhibits 50% of proliferation
Protocol: as §1, §2

[7] = system: liver cancer cell line T2 HCC; assay: MTT assay of cellular proliferation, T2 HCC; conditions: Mus musculus, read-out: EC50: Concentration that inhibits 50% of proliferation
Protocol: as §1, §2

[8] = system: colon cancer cell line HCT116; assay: Minimal effective concentration that elicits polyploidy, HCT116; conditions: Homo sapiens, HCT-116, read-out: MECP: Minimal effective concentration that elicits polyploidy
[9] = system: lung cancer cell line NCI-H23; assay: MTT assay of cellular proliferation, NCI-H23; conditions: Homo sapiens, read-out: EC50: Concentration that inhibits 50% of proliferation
Protocol: as §1, §2

[10] = system: breast cancer cell line MDA-MB-231; assay: Minimal effective concentration that elicits polyploidy, MDA-MB-231; conditions: Homo sapiens, read-out: MECP: Minimal effective concentration that elicits polyploidy
[11] = system: liver cancer cell line T2 HCC; assay: Minimal effective concentration that elicits polyploidy, T2 HCC; conditions: Mus musculus, read-out: MECP: Minimal effective concentration that elicits polyploidy
[12] = system: cervical cancer cell line Hela; assay: Minimal effective concentration that elicits polyploidy, Hela; conditions: Homo sapiens, read-out: MECP: Minimal effective concentration that elicits polyploidy
SW480 = assay: Minimal effective concentration that elicits polyploidy, SW480; conditions: Homo sapiens, read-out: MECP: Minimal effective concentration that elicits polyploidy
RPEMYC^H2B-GFP cells [13] = assay: Mechanism-informed phenotypic screening assay (mitotic arrest, polyploidy; GE IN-Cell Analyzer 2000); conditions: 20 nM to 20 μM, 24, 48 or 72 hours, read-out: Min. Effective conc. for polyploidy (≥5%)
Summary of the method: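 RPEMYC^H2B-GFP cells expressing Histone 2B-EGFP were treated with compounds at 20 nM to 20 μM. Mitotic arrest and DNA content were imaged at 24, 48 or 72 h. Minimal effective concentrations eliciting polyploidy are given as letter bins.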

[14] = system: lung cancer cell line A549; assay: Minimal effective concentration that elicits polyploidy, A549; conditions: Homo sapiens, read-out: MECP: Minimal effective concentration that elicits polyploidy
[15] = system: breast cancer cell line MDA-MB-231; assay: MTT assay of cellular proliferation, MDA-MB-231; conditions: Homo sapiens, read-out: EC50: Concentration that inhibits 50% of proliferation
Protocol: as §1, §2

RPEMYC^H2B-GFP cells [16] = assay: Mechanism-informed phenotypic screening assay (mitotic arrest, polyploidy; GE IN-Cell Analyzer 2000); conditions: 20 nM to 20 μM, 24, 48 or 72 hours, read-out: Mitotic Arrest (≥5%)
[17] = system: lung cancer cell line A549; assay: MTT assay of cellular proliferation, A549; conditions: Homo sapiens, read-out: EC50: Concentration that inhibits 50% of proliferation
Protocol: as §1, §2

Structure (SMILES)	EC50 [1]	minimal effective concentration [2]	minimal effective concentration [3]	EC50 [4]	EC50 [5]	EC50 [6]	EC50 [7]	minimal effective concentration [8]	EC50 [9]	minimal effective concentration [10]	minimal effective concentration [11]	minimal effective concentration [12]	minimal effective concentration (SW480)	minimal effective concentration (RPEMYC^H2B-GFP cells [13])	minimal effective concentration [14]	EC50 [15]	minimal effective concentration (RPEMYC^H2B-GFP cells [16])	EC50 [17]
COc1cc(NC(C)=O)cc(Oc2ncccc2-c2ccnc(OC)c2)c1 [Compound 34]	0.001 to 1 µM	0.001 to 1 µM	0.001 to 1 µM	0.001 to 1 µM	0.001 to 1 µM	0.001 to 1 µM	0.001 to 1 µM	0.001 to 1 µM	0.001 to 1 µM	0.001 to 1 µM	0.001 to 1 µM	0.001 to 1 µM	0.001 to 1 µM	1 µM	0.001 to 1 µM	0.001 to 1 µM	1 µM	0.001 to 1 µM
COc1cc(OC)cc(Oc2nccnc2-c2ccnc(OC)c2)c1 [Compound 35, 2-(3,5-dimethoxyphenoxy)-3-(2-methoxypyridin-4-yl)pyrazine]	0.001 to 1 µM	0.001 to 1 µM	0.001 to 1 µM	0.001 to 1 µM	0.001 to 1 µM	0.001 to 1 µM	0.001 to 1 µM	0.001 to 1 µM	0.001 to 1 µM	0.001 to 1 µM	0.001 to 1 µM	0.001 to 1 µM	0.001 to 1 µM	1 µM	0.001 to 1 µM	0.001 to 1 µM	1 µM	0.001 to 1 µM
CNC(=O)c1cc(OC)cc(Oc2ncccc2-c2ccnc(C)c2)c1 [Compound 36, 3-methoxy-N-methyl-5-((2′-methyl-[3,4′-bipyridin]-2-yl)oxy)benzamide]	0.001 to 1 µM	0.001 to 1 µM	0.001 to 1 µM	0.001 to 1 µM	0.001 to 1 µM	0.001 to 1 µM	0.001 to 1 µM	0.001 to 1 µM	0.001 to 1 µM	0.001 to 1 µM	0.001 to 1 µM	0.001 to 1 µM	0.001 to 1 µM	1 µM	0.001 to 1 µM	0.001 to 1 µM	1 µM	0.001 to 1 µM
CNC(=O)c1cc(Oc2ncccc2-c2ccnc(C)c2)cc(C(F)(F)F)c1 [Compound 37, N-methyl-3-((2′-methyl-[3,4′-bipyridin]-2-yl)oxy)-5-(trifluoromethyl)benzamide]	0.001 to 1 µM	0.001 to 1 µM	0.001 to 1 µM	0.001 to 1 µM	0.001 to 1 µM	0.001 to 1 µM	0.001 to 1 µM	0.001 to 1 µM	0.001 to 1 µM	0.001 to 1 µM	0.001 to 1 µM	0.001 to 1 µM	0.001 to 1 µM	1 µM	0.001 to 1 µM	0.001 to 1 µM	1 µM	0.001 to 1 µM
CCOc1cc(Oc2ncccc2-c2ccnc(C)c2)cc(C(=O)NC)c1 [Compound 38, 3-ethoxy-N-methyl-5-((2′-methyl-[3,4′-bipyridin]-2-yl)oxy)benzamide]	0.001 to 1 µM	0.001 to 1 µM	0.001 to 1 µM	0.001 to 1 µM	0.001 to 1 µM	0.001 to 1 µM	0.001 to 1 µM	0.001 to 1 µM	0.001 to 1 µM	0.001 to 1 µM	0.001 to 1 µM	0.001 to 1 µM	0.001 to 1 µM	1 µM	0.001 to 1 µM	0.001 to 1 µM	1 µM	0.001 to 1 µM
